Where “and” joins values, the source holds several entries; their conditions need not be identical. Equal entries are not always repeated. Toxic doses and inconclusive results are not listed. Rule for the calls: active = survival T/C of 150% or more; inactive = T/C below 125% in these data.
Test system: CD2F1 mice, L1210 leukemia ip, survival T/C
Experiment: NCI In Vivo Anticancer Drug Screen. Data for tumor model L1210 Leukemia (intraperitoneal) in CD2F1 (CDF1) mice
Conditions: higher = longer survival
Procedure, shortened: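 Transplantable tumor in mice; compound-treated vs vehicle-treated groups. Read-out = treated/control ratio of the measured endpoint.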

[1] = endpoint: mean survival time, dose: 100.0 mg/kg/injection, schedule: Q01DX001 (ip), vehicle: Klucel (hydroxypropylcellulose) (HPC)
[2] = endpoint: mean survival time, dose: 200.0 mg/kg/injection, schedule: Q01DX001 (ip), vehicle: Klucel (hydroxypropylcellulose) (HPC)
[3] = endpoint: mean survival time, dose: 400.0 mg/kg/injection, schedule: Q01DX001 (ip), vehicle: Klucel (hydroxypropylcellulose) (HPC)
[4] = endpoint: mean survival time, dose: 100.0 mg/kg/injection, schedule: Q04DX003 (ip), vehicle: saline with Tween-80
[5] = endpoint: mean survival time, dose: 200.0 mg/kg/injection, schedule: Q04DX003 (ip), vehicle: saline with Tween-80
[6] = endpoint: mean survival time, dose: 400.0 mg/kg/injection, schedule: Q04DX003 (ip), vehicle: saline with Tween-80
[7] = endpoint: median survival time, dose: 50.0 mg/kg/injection, schedule: Q04DX002 (ip), vehicle: saline with Tween-80
[8] = endpoint: median survival time, dose: 100.0 mg/kg/injection, schedule: Q04DX002 (ip), vehicle: saline with Tween-80
[9] = endpoint: median survival time, dose: 200.0 mg/kg/injection, schedule: Q04DX002 (ip), vehicle: saline with Tween-80
[10] = endpoint: mean survival time, dose: 100.0 mg/kg/injection, schedule: Q01DX009 (ip), vehicle: saline with Tween-80
[11] = endpoint: mean survival time, dose: 200.0 mg/kg/injection, schedule: Q01DX009 (ip), vehicle: saline with Tween-80
[12] = endpoint: mean survival time, dose: 400.0 mg/kg/injection, schedule: Q01DX009 (ip), vehicle: saline with Tween-80

Measured: T/C

CN(N=O)C(=O)NCC1CCC(CNC(=O)N(C)N=O)CC1 (configuration not stated)
inactive: endpoint: mean survival time, dose: 100.0 mg/kg/injection, schedule: Q01DX001 (ip), vehicle: carboxymethylcellulose (CMC) 96 % of control | endpoint: mean survival time, dose: 200.0 mg/kg/injection, schedule: Q01DX001 (ip), vehicle: carboxymethylcellulose (CMC) 88 % of control and 98 % of control | endpoint: mean survival time, dose: 300.0 mg/kg/injection, schedule: Q01DX001 (ip), vehicle: carboxymethylcellulose (CMC) 98 % of control and 93 % of control | endpoint: mean survival time, dose: 400.0 mg/kg/injection, schedule: Q01DX001 (ip), vehicle: carboxymethylcellulose (CMC) 101 % of control and 108 % of control | endpoint: mean survival time, dose: 500.0 mg/kg/injection, schedule: Q01DX001 (ip), vehicle: carboxymethylcellulose (CMC) 106 % of control and 107 % of control | endpoint: mean survival time, dose: 600.0 mg/kg/injection, schedule: Q01DX001 (ip), vehicle: carboxymethylcellulose (CMC) 104 % of control | endpoint: mean survival time, dose: 800.0 mg/kg/injection, schedule: Q01DX001 (ip), vehicle: carboxymethylcellulose (CMC) 111 % of control | endpoint: mean survival time, dose: 1000.0 mg/kg/injection, schedule: Q01DX001 (ip), vehicle: carboxymethylcellulose (CMC) 112 % of control

Cc1cn(C2CC(O)C(COC(N)=O)O2)c(=O)[nH]c1=O (configuration not stated)
inactive: [1] 116 % of control | [2] 92 % of control | [3] 104 % of control

COc1c(NS(=O)(=O)c2ccccc2)cc2c3c(cccc13)/C(=C1\Cc3cccc4c(OC)c(NS(=O)(=O)c5ccccc5)cc1c34)C2
inactive: [4] 95 % of control | [5] 91 % of control | [6] 92 % of control

O=C(CC(=O)OCc1ccc([N+](=O)[O-])cc1)OCc1ccc([N+](=O)[O-])cc1
inactive: [2] 96 % of control | [3] 93 % of control

N#Cc1cn(C2OC(CO)C(O)C2O)c2[nH]cnc(=S)c12 (configuration not stated)
inactive: endpoint: mean survival time, dose: 100.0 mg/kg/injection, schedule: Q01DX001 (ip), vehicle: saline 103 % of control | endpoint: mean survival time, dose: 200.0 mg/kg/injection, schedule: Q01DX001 (ip), vehicle: saline 108 % of control | endpoint: mean survival time, dose: 400.0 mg/kg/injection, schedule: Q01DX001 (ip), vehicle: saline 109 % of control

N#CC(=C1CCN(Cc2ccccc2)CC1)c1ccccc1
inactive: [7] 100 % of control | [8] 100 % of control | [9] 111 % of control

CCCCCCCCCCCCNC(=O)OCCN(CCOC(=O)NCCCCCCCCCCCC)C(=O)COc1ccc(Cl)cc1
inactive: endpoint: mean survival time, dose: 100.0 mg/kg/injection, schedule: Q04DX003 (ip), vehicle: other 86 % of control | endpoint: mean survival time, dose: 200.0 mg/kg/injection, schedule: Q04DX003 (ip), vehicle: other 91 % of control | endpoint: mean survival time, dose: 400.0 mg/kg/injection, schedule: Q04DX003 (ip), vehicle: other 93 % of control

NC(=O)C1C=CN(Cc2ccccc2)C=C1
inactive: endpoint: median survival time, dose: 30.0 mg/kg/injection, schedule: Q01DX005 (ip), vehicle: saline with Tween-80 100 % of control | endpoint: median survival time, dose: 60.0 mg/kg/injection, schedule: Q01DX005 (ip), vehicle: saline with Tween-80 107 % of control | endpoint: median survival time, dose: 120.0 mg/kg/injection, schedule: Q01DX005 (ip), vehicle: saline with Tween-80 111 % of control

CCOC/C(O)=C(\C#N)c1cccc(Cl)c1
inactive: endpoint: mean survival time, dose: 25.0 mg/kg/injection, schedule: Q01DX001 (ip), vehicle: other 105 % of control | endpoint: mean survival time, dose: 50.0 mg/kg/injection, schedule: Q01DX001 (ip), vehicle: other 102 % of control | endpoint: mean survival time, dose: 100.0 mg/kg/injection, schedule: Q01DX001 (ip), vehicle: other 102 % of control | endpoint: mean survival time, dose: 200.0 mg/kg/injection, schedule: Q01DX001 (ip), vehicle: other 101 % of control

O=C(CNC(=O)Nc1cccc([N+](=O)[O-])c1)NNC(=O)Nc1ccc(Cl)c([N+](=O)[O-])c1
inactive: [10] 91 % of control | [11] 87 % of control

C=C(C)C(=O)OCC(O)C[N+](C)(C)C (configuration not stated)
inactive: endpoint: mean survival time, dose: 50.0 mg/kg/injection, schedule: Q04DX003 (ip), vehicle: saline with Tween-80 96 % of control | [4] 87 % of control

CCOC(=O)/C=C/C(=O)N1CCN(C(=O)/C=C/C(=O)OCC)C(C)C1 (configuration not stated)
inactive: endpoint: median survival time, dose: 25.0 mg/kg/injection, schedule: Q01DX009 (ip), vehicle: Klucel (hydroxypropylcellulose) (HPC) 106 % of control | endpoint: median survival time, dose: 50.0 mg/kg/injection, schedule: Q01DX009 (ip), vehicle: Klucel (hydroxypropylcellulose) (HPC) 110 % of control | endpoint: median survival time, dose: 100.0 mg/kg/injection, schedule: Q01DX009 (ip), vehicle: Klucel (hydroxypropylcellulose) (HPC) 109 % of control | endpoint: median survival time, dose: 200.0 mg/kg/injection, schedule: Q01DX009 (ip), vehicle: Klucel (hydroxypropylcellulose) (HPC) 109 % of control | endpoint: median survival time, dose: 400.0 mg/kg/injection, schedule: Q01DX009 (ip), vehicle: Klucel (hydroxypropylcellulose) (HPC) 109 % of control

O=C(SSCCSSCCSSC(=O)N1CCOCC1)N1CCOCC1
inactive: [1] 93 % of control | [2] 100 % of control | [3] 93 % of control

Cc1cc(O)c(Br)c(C)c1Br
inactive: [10] 111 % of control | [4] 104 % of control | [11] 98 % of control | [5] 97 % of control | [12] 106 % of control | [6] 101 % of control

[Cl][Pt+2][Cl].[NH-]C(CC([NH-])c1ccccc1)c1ccccc1 (configuration not stated)
inactive: endpoint: mean survival time, dose: 6.25 mg/kg/injection, schedule: Q04DX003 (ip), vehicle: saline with Tween-80 119 % of control and 113 % of control and 115 % of control | endpoint: mean survival time, dose: 12.5 mg/kg/injection, schedule: Q04DX003 (ip), vehicle: saline with Tween-80 121 % of control and 113 % of control and 119 % of control | endpoint: mean survival time, dose: 25.0 mg/kg/injection, schedule: Q04DX003 (ip), vehicle: saline with Tween-80 122 % of control and 113 % of control and 119 % of control

Cc1nc2c(c(=O)[nH]1)C(c1ccccc1)C(C)(C)O2 (configuration not stated)
inactive: [10] 96 % of control | [4] 93 % of control | [11] 93 % of control | [5] 96 % of control | [12] 93 % of control | [6] 93 % of control

CCC1CCCCN1C(=S)N/N=C(\C)c1ccccn1 (configuration not stated)
inactive: endpoint: median survival time, dose: 6.25 mg/kg/injection, schedule: Q01DX009 (ip), vehicle: saline with Tween-80 101 % of control | endpoint: median survival time, dose: 12.5 mg/kg/injection, schedule: Q01DX009 (ip), vehicle: saline with Tween-80 108 % of control | endpoint: median survival time, dose: 25.0 mg/kg/injection, schedule: Q01DX009 (ip), vehicle: saline with Tween-80 86 % of control

Nc1csc(N)n1
inactive: endpoint: mean survival time, dose: 37.5 mg/kg/injection, schedule: Q01DX009 (ip), vehicle: saline 98 % of control | endpoint: mean survival time, dose: 75.0 mg/kg/injection, schedule: Q01DX009 (ip), vehicle: saline 98 % of control | endpoint: mean survival time, dose: 150.0 mg/kg/injection, schedule: Q01DX009 (ip), vehicle: saline 98 % of control

NC(=O)c1cn(C2OC(CO)C(O)C2O)c2nc(N)nc(N)c2c1=O (configuration not stated)
inactive: endpoint: mean survival time, dose: 12.5 mg/kg/injection, schedule: Q01DX005 (ip), vehicle: water 104 % of control | endpoint: mean survival time, dose: 25.0 mg/kg/injection, schedule: Q01DX005 (ip), vehicle: water 104 % of control | endpoint: mean survival time, dose: 50.0 mg/kg/injection, schedule: Q01DX005 (ip), vehicle: water 104 % of control | endpoint: mean survival time, dose: 100.0 mg/kg/injection, schedule: Q01DX005 (ip), vehicle: water 124 % of control | endpoint: median survival time, dose: 50.0 mg/kg/injection, schedule: Q01DX005 (ip), vehicle: saline with Tween-80 103 % of control and 107 % of control | endpoint: median survival time, dose: 100.0 mg/kg/injection, schedule: Q01DX005 (ip), vehicle: saline with Tween-80 105 % of control and 110 % of control | endpoint: median survival time, dose: 200.0 mg/kg/injection, schedule: Q01DX005 (ip), vehicle: saline with Tween-80 115 % of control and 106 % of control | endpoint: median survival time, dose: 400.0 mg/kg/injection, schedule: Q01DX005 (ip), vehicle: saline with Tween-80 117 % of control

COC1=N/C=C/C=C\C/C=C/C1
inactive: [7] 111 % of control | [8] 88 % of control | [9] 100 % of control | endpoint: median survival time, dose: 400.0 mg/kg/injection, schedule: Q04DX002 (ip), vehicle: saline with Tween-80 88 % of control

Cc1cc(C)[nH]c(=S)n1
inactive: endpoint: mean survival time, dose: 50.0 mg/kg/injection, schedule: Q01DX009 (ip), vehicle: saline with Tween-80 100 % of control | [10] 96 % of control | [11] 96 % of control

NC(=O)c1csc(COCC(O)CO)n1 (configuration not stated)
inactive: endpoint: median survival time, dose: 33.0 mg/kg/injection, schedule: Q01DX009 (ip), vehicle: water 101 % of control | endpoint: median survival time, dose: 66.0 mg/kg/injection, schedule: Q01DX009 (ip), vehicle: water 103 % of control | endpoint: median survival time, dose: 132.0 mg/kg/injection, schedule: Q01DX009 (ip), vehicle: water 107 % of control | endpoint: median survival time, dose: 264.0 mg/kg/injection, schedule: Q01DX009 (ip), vehicle: water 101 % of control

COC(=O)c1ccc(NCC(=N)N)cc1
inactive: endpoint: mean survival time, dose: 50.0 mg/kg/injection, schedule: Q01DX009 (ip), vehicle: saline 100 % of control | endpoint: mean survival time, dose: 100.0 mg/kg/injection, schedule: Q01DX009 (ip), vehicle: saline 122 % of control | endpoint: mean survival time, dose: 200.0 mg/kg/injection, schedule: Q01DX009 (ip), vehicle: saline 100 % of control

Reference: PubChem BioAssay AID256 (DTP/NCI, 2004)
